Measurements reported in US9902713B2, “Neuroprotective compounds and use thereof” (BOARD OF REGENTS OF THE UNIVERSITY OF TEXAS SYSTEM, priority 2013, dated 2018).
Entries after “also recorded” stand apart in the source; their conditions may differ.

Columns and labels:
[1] = tested on: newborn hippocampal neurons; details: previously reported; cited from earlier work
[2] = Long-term treatment: weight, behavior, appearance
[3] = tested on: 6-OHDA-exposed rats; test: 6-OHDA rat model of Parkinson's disease; format: in vivo
Procedure: (FIG. 34A) Schematic of the experimental design illustrates that rats received a unilateral stereotactic injection of 6-OHDA or saline in the medial forebrain bundle (MFB), followed by daily injection of P7C3-S243 for 7 days. Open field and cylinder tests were performed 8-10 days after 6-OHDA injection, and the amphetamine circling test was conducted on day 11. Rats were transcardially perfused on day 14, and brain tissue was processed for neurochemistry and immunohistochemistry analysis. […] Scale bars=250 μm. […] No difference was found in the concentration of serotonin in all groups (one-way ANOVA). For all experiments in FIG. 34, n=10 per group except for the HPLC analysis, for which n=7.
FIGS. 36A-36F show pretreatment with P7C3-A20 or P7C3-S243 (10 mg/kg/day) protects rats from 6-OHDA toxicity. (FIG. 36A) Schematic of the experimental design illustrates that rats were pretreated for 3 days with either P7C3-A20 or P7C3-S243, and then administered either 6-OHDA or saline by stereotactic injection in the medial forebrain bundle (MFB), followed by 7 more days of treatment with either P7C3-A20 or P7C3-S243. Open field and cylinder tests were performed between days 8-10, and the amphetamine circling test was performed on day 11. Rats were transcardially perfused on day 14, and brain tissue was processed for neurochemistry and immunohistochemistry analysis. […] Scale bars=250 μm.
FIGS. 37A-37B show treatment of 6-OHDA-exposed rats with P7C3-S243 preserves both TH and NeuN staining, illustrating that TH staining corresponds to neuronal survival. […] DAPI was used as a nuclear marker.

[4] = tested on: cultured hippocampal neurons; test: MPP+ toxicity in cultured neurons (MTT); format: cell-based; details: 10 μM compound, 10 μM MPP+, 24 hrs
Procedure: FIGS. 35A-35B show P7C3-S243 and P7C3-A20 protect cultured hippocampal and cortical neurons from MPP^+ toxicity. […] Experiments were performed 2 independent times with 8-12 replicates of each sample both times.

[5] = tested on: newborn hippocampal neurons; test: In vivo neuroprotection assay: BrdU+ newborn hippocampal neurons; parameters: species or system mice
Procedure: Results. Our most robust assay involves monitoring neuroprotection of newborn hippocampal neurons in mice because this assay gives a simultaneous readout of efficacy, acute toxicity and cell permeability. For this reason, all analogs of P7C3 were evaluated initially by infusing them directly into the left lateral ventricle of environmentally-deprived^ix live mice using a subcutaneously implanted osmotic minipump. Compounds were delivered intracerebroventricularly (ICV) over a 7 day period at a concentration of 10 μM (12 μL/d).^x Coincident with ICV administration of drug, mice were dosed daily with the thymidine analog bromodeoxyuridine (BrdU, IP, 50 mg/kg) to mark newly born hippocampal neural precursor cells. At the end of the 1 week dosing, animals were sacrificed and transcardially perfused. Brain slices were stained with antibodies to BrdU, and the number of surviving neural precursor cells was quantified by counting the number of BrdU+ cells in the hippocampal dentate gyrus. To avoid complications arising from the surgical implantation of the pump, we quantified neurogenesis in the hemisphere opposite to compound infusion. Finally, to obtain consistent data across many animals, the number of BrdU+ cells was normalized to the volume of the dentate gyrus.
In Vivo Neuroprotection Assay. Test compounds were evaluated as described previously.^2 Compounds were infused intracerebroventricularly (i.c.v.) into the left lateral ventricle of four adult (12 week old) wild-type C57BL/J6 mice by means of surgically implanted Alzet osmotic minipumps that delivered solution into animals at a constant rate of 0.5 μl/hour for 7 days. Alternatively, compounds were administered intraperitoneally twice daily. Bromodeoxyuridine (BrdU) was injected intraperitoneally at 50 mg/kg/day for six days during pump infusion. Twenty-four hours after the final BrdU administration, mice were sacrificed by transcardial perfusion with 4% paraformaldehyde at pH 7.4, and their brains were processed for immunohistochemical detection of incorporated BrdU in the SGZ. Dissected brains were immersed in 4% paraformaldehyde overnight at 4° C., then cryoprotected in sucrose before being sectioned into 40 μm thick free-floating sections. Unmasking of BrdU antigen was achieved through incubating tissue sections for two hours in 50% formamide/2×SSC at 65° C., followed by a five minute wash in 2×SSC and subsequent incubation for thirty minutes in 2M HCl at 37° C. Sections were processed for immunohistochemical staining with mouse monoclonal anti-BrdU (1:100). The number of BrdU+ cells in the entire dentate gyrus SGZ in the contralateral hemisphere (opposite side of surgically implanted pump) was quantified by counting BrdU+ cells within the SGZ and dentate gyrus in every fifth section throughout the entire hippocampus and then normalizing for dentate gyrus volume.

[6] = biological target: peripheral benzodiazepine receptor (translocator protein, TSPO) (Rattus norvegicus, UniProt P16257); test: Ligand displacement (Psychoactive Drug Screening Program); format: binding
[7] = tested on: degenerating axons; test: Silver staining of degenerating axons after blast-mediated TBI
Procedure: Optical densitometry of silver-stained tissue was used to quantify the magnitude of staining, such that greater impedance of light through the section reflected greater axonal degeneration (FIG. 18B).
All brains were stored in a freezer at −80° C. before sectioning. […] Every 1st-12th sections of each series of 12 sections (interval: 480 μm) were collected separately. All sections were stored free-floating in FD sections storage solution (FD Neurotechnologies, Columbia, Md.) at −20° C. before further processing.
For silver staining, sections were collected in 0.1 M phosphate buffer (pH 7.4) containing 4% paraformaldehyde and fixed for 5 days at 4° C. Sections were then processed for the detection of neurodegeneration with FD NeuroSilver Kit II (FD Neurotechnologies) according to the manufacturer's instructions (for detailed procedures, cf. the manual of PK301, available at www.fdneurotech.com). Subsequently, all sections were mounted on slides, dehydrated in ethanol, cleared in xylene, and coverslipped with Permount (Fisher Scientific, Fair Lawn, N.J.).
The microscope light intensity and camera exposure were held constant. The operator outlined areas of interest around specific brain regions and recorded the intensity of light passing through the slide. Degenerating axons allowed less light to pass through the section due to their uptake of silver stain, so lower light intensity correlated with increased degeneration. Operator performing quantification was blinded to condition and treatment.

[8] = Protein binding; format: in vitro ADME
[9] = 10 mg/kg/day, pretreated 3 days plus 7 more days
[10] = single enantiomers, 3 mg/kg/day
[11] = 10 mg/kg/day, 7 days after 6-OHDA

With COc1cccc(NCC(F)Cn2c3ccc(Br)cc3c3cc(Br)ccc32)c1 (stereo not shown) [P7C3-A20, N-(3-(3,6-dibromo-9H-carbazol-9-yl)-2-fluoropropyl)-3-methoxyaniline] as the compound, how does the “activity in the in vivo hippocampal neuroprotection assay (previous studies)” value [1] read?
Its value is “substantially improved activity”.

And the “impact on weight, behavior or appearance” value ([2]; up to 40 mg/kg/d for 21 d)?
Its value is “no negative impact”.

And the “TH-positive cells compared to 6-OHDA-Vehicle group” value [3, 9]?
Its value is “significant increase”.

And the “ipsilateral rotations (amphetamine-circling) of 6-OHDA+vehicle animals compared to 6-OHDA+compound animals” value [3, 9]?
Its value is “significant increase”.

What about the “total distance traveled (open field) of 6-OHDA+vehicle animals compared to 6-OHDA+compound animals” value [3, 9] of the same compound?
Its value is “significant decrease”.

And the “total rearings (cylinder test) of 6-OHDA+vehicle animals compared to 6-OHDA+compound animals” value [3, 9]?
The value was “significant decrease”.

And the “protection (MTT)” value [4]?
Its value is “significant protection”.

Which “neuroprotective activity of pure enantiomers” value ([5]; ICV 0.5 μL/h, 7 days, FIG. 2) does the source give for COc1cccc(NCC(F)Cn2c3ccc(Br)cc3c3cc(Br)ccc32)n1 (single isomer, unassigned; (-)) [(−)-P7C3-S243, (−)-N-(3-(3,6-dibromo-9H-carbazol-9-yl)-2-fluoropropyl)-6-methoxypyridin-2-amine] here?
Its value is “highly active; also recorded: high activity”.

And the IC50 [6]?
The IC50 was 350 nM.

What about the “axonal degeneration, CA1 stratum radiatum” value [7, 10] of the same compound?
Its value is “complete protection from axonal degeneration”.

And the “axonal degeneration, cerebellar molecular layer” value [7, 10]?
The value was “blocked”.

What about the “silver staining in CA1, corpus callosum, thalamus, cortex, olfactory bulb, striatum, dentate gyrus, cerebellum” value [7, 10] of the same compound?
The value was “protected from axonal degeneration”.

What does the source list for COc1cccc(NCC(F)Cn2c3ccc(Br)cc3c3cc(Br)ccc32)n1 (racemic) [P7C3-S243, N-(3-(3,6-dibromo-9H-carbazol-9-yl)-2-fluoropropyl)-6-methoxypyridin-2-amine]?
activity relative to P7C3 and P7C3-A20 ([5]; ICV, 1 week, FIG. 1): superior to P7C3 and comparable to P7C3-A20; number of surviving newborn hippocampal neurons ([5]; ICV, 1 week, FIG. 1): approximately doubled; dose at ceiling of efficacy ([5]; administered intraperitoneally): 10 mg/kg/day; dose at which active ([5]; administered intraperitoneally): 1 mg/kg/day; axonal degeneration, cerebellar molecular layer ([7]; 0.3 mg/kg/day): Extensive axonal degeneration; silver staining in CA1, corpus callosum, thalamus, cortex, olfactory bulb, striatum, dentate gyrus, cerebellum ([7]; 0.3 mg/kg/day): prominent silver staining of degenerating axons; axonal degeneration, cerebellar molecular layer ([7]; 3 and 30 mg/kg/day): blocked; axonal degeneration, CA1 stratum radiatum ([7]; 3 and 30 mg/kg/day from 24 hours after injury): blocked; axonal and cellular degeneration, thalamus, cortex, CA1 ([7]; 14 days after injury, treatment from 24 hours, FIG. 7): ameliorated; impact on weight, behavior or appearance ([2]; up to 10 mg/kg/d for 21 d): no negative impact; TH and NeuN immunofluorescence of the SNc ([3]; 10 mg/kg/day for 7 days): preservation of co-localized tyrosine hydroxylase (TH) and NeuN; TH-positive cells compared to 6-OHDA-Vehicle group [3, 11]: significant increase; ipsilateral rotations (amphetamine-circling) of 6-OHDA+vehicle animals compared to 6-OHDA+compound animals [3, 11]: significant increase; total distance traveled (open field) of 6-OHDA+vehicle animals compared to 6-OHDA+compound animals [3, 11]: significant decrease; total rearings (cylinder test) of 6-OHDA+vehicle animals compared to 6-OHDA+compound animals [3, 11]: significant decrease; striatal concentration of dopamine, DOPAC, and homovanillic acid compared to 6-OHDA-Vehicle group ([3]; 10 mg/kg/day, 7 days after 6-OHDA, HPLC): significant increase; TH-positive cells compared to 6-OHDA-Vehicle group [3, 9]: significant increase; ipsilateral rotations (amphetamine-circling) of 6-OHDA+vehicle animals compared to 6-OHDA+compound animals [3, 9]: significant increase; total distance traveled (open field) of 6-OHDA+vehicle animals compared to 6-OHDA+compound animals [3, 9]: significant decrease; total rearings (cylinder test) of 6-OHDA+vehicle animals compared to 6-OHDA+compound animals [3, 9]: significant decrease; protein binding [8]: high; protection (MTT) [4]: significant protection
